Assay results as given in article PMC12647645, “Structural interactions of BWC0977 with Klebsiella pneumoniae topoisomerase IV and biochemical basis of its broad-spectrum activity” (Communications Biology, 2025).
Values after ≈ are worked out from the molar mass of the structure shown. Values joined by “and” are separate entries in the source; they are usually repeats but may differ in a detail not shown here. Equal values may be shown once.

Tests used:
[1] = tested on: E. coli MG1655 GyrA R121K, ParC WT; test: microbe, parasite or virus in culture; assay type: cell-based; conditions: Escherichia coli
[2] = biological target: S. aureus topoisomerase IV (Staphylococcus aureus, UniProt P0C1S7+P0C1U9); test: biochemical; parameters: Topo IV decatenation inhibition response: unit not given here
Method: (§1) Assays with P. aeruginosa topoisomerase IV (3 nM) were conducted in a similar buffer but with 50 mM HEPES-KOH (pH 7.9), 100 mM potassium glutamate, 6 mM magnesium acetate, 6 mM DTT, 1 mM ATP, 2 mM spermidine, and 50 μg/mL albumin. For S. aureus topoisomerase IV assay, the reactions contained 4 nM enzyme in an assay buffer composed of 50 mM Tris-HCl (pH 7.5), 5 mM MgCl₂, 5 mM DTT, 1.5 mM ATP, 350 mM potassium glutamate, and 0.05 mg/mL albumin. The procedures followed were consistent with those used in the supercoiling assays. Decatenated minicircles were resolved on 0.8% agarose gels, while the kDNA substrate remained in the wells. Gels were stained with 0.8 μg/mL ethidium bromide solution for 10 min, followed by destaining. DNA bands were visualized using a gel documentation system, and compound inhibition analysis was carried out using the same procedures described for the supercoiling assays.

[3] = biological target: E. coli GyrA M120K mutant gyrase (Escherichia coli, UniProt P0AES4+P0AES6, M120K); test: biochemical; assay type: biochemical; conditions: for Gyrase supercoiling inhibition response: GyrA M120K gyrase
[4] = biological target: P. aeruginosa topoisomerase IV (Pseudomonas aeruginosa, UniProt Q9HUJ8+Q9HUK1); test: Topoisomerase IV decatenation assay, P. aeruginosa; assay type: biochemical; parameters: Topo IV decatenation inhibition response: unit not given here
Method: as §1, with “Topoisomerase IV decatenation reactions were performed using 2.5 nM E. coli enzyme and 60 ng kinetoplast DNA (kDNA) in an assay buffer containing 50 mM HEPES-KOH (pH 7.6), 100 mM potassium glutamate, 10 mM magnesium acetate, 10 mM DTT, 1 mM ATP, and 50 μg/mL albumin. Assays” for “Assays”

[5] = tested on: K. pneumoniae ATCC 13883; test: MIC broth microdilution; assay type: cell-based; conditions: Klebsiella pneumoniae, ATCC13883
[6] = biological target: Human topo IIα (Homo sapiens, UniProt P11388); test: Human topo IIα decatenation assay; assay type: biochemical
Method: Human topo IIα (0.9 nM) and topo IIß (2.2 nM) decatenation assays were performed following the same protocol used for bacterial topoisomerase IV decatenation assays. The assay buffer was made of 50 mM Tris. HCl (pH 7.5), 125 mM NaCl, 10 mM MgCl2, 5 mM DTT, and 100 μg/mL albumin.

[7] = tested on: S. aureus; conditions: ref 6 (Hameed P et al., 2024); cited from earlier work
[8] = tested on: E. coli tolC strain; test: MIC, efflux-deficient strain; assay type: cell-based
[9] = tested on: E. coli; conditions: ref 6 (Hameed P et al., 2024); cited from earlier work
[10] = tested on: E. coli MG1655 (GyrA WT, ParC WT); test: microbe, parasite or virus in culture; assay type: cell-based; conditions: Escherichia coli
[11] = tested on: E. coli BAA 2471; test: microbe, parasite or virus in culture; assay type: cell-based; conditions: Escherichia coli, BAA2471
[12] = tested on: E. coli wild-type strain; test: MIC, wild-type strain; assay type: cell-based; conditions: Escherichia coli

Cn1c(=O)ccc2ccc(F)c(CCNC[C@H]3CN(c4cnc5c(n4)NC(=O)CO5)C(=O)O3)c21 [BWC0977]
MIC [1]: 0.01 µg/mL (≈ 0.0213 µM) | IC50 [2]: 0.11 µM | inhibition at 0.0037 µM ([2]; S. aureus topo IV, compound 0.0037 μM, source data Fig 2C, read-out: Topo IV decatenation inhibition response): 0% | Topo IV decatenation inhibition response ([2]; S. aureus topo IV, compound 0.0988 μM, source data Fig 2C, listed as 977, 0.0988 µM): 31.67 and 43.21 and 56.17 | Topo IV decatenation inhibition response ([2]; S. aureus topo IV, compound 0.2963 μM, source data Fig 2C, listed as 977, 0.2963 µM): 76.23 and 76.66 | inhibition at 0.2963 µM ([2]; S. aureus topo IV, compound 0.2963 μM, source data Fig 2C, read-out: Topo IV decatenation inhibition response): 67% | Topo IV decatenation inhibition response ([2]; S. aureus topo IV, compound 0.8889 μM, source data Fig 2C, listed as 977, 0.8889 µM): 92.92 and 90.9 | inhibition at 0.8889 µM ([2]; S. aureus topo IV, compound 0.8889 μM, source data Fig 2C, read-out: Topo IV decatenation inhibition response): 89.7% | inhibition at 2.6667 µM ([2]; S. aureus topo IV, compound 2.6667 μM, source data Fig 2C, read-out: Topo IV decatenation inhibition response): 98.1% | Topo IV decatenation inhibition response ([2]; S. aureus topo IV, compound 8 μM, source data Fig 2C, listed as 977, 8 µM): 99.9 and 99.56 | inhibition at 8 µM ([2]; S. aureus topo IV, compound 8 μM, source data Fig 2C, read-out: Topo IV decatenation inhibition response): 99.7% | IC50 ([3]; Fig. 6, read-out: IC50 M120K gyrase supercoiling): 116 µM | Gyrase supercoiling inhibition response ([3]; compound 4.444 µM, source data Fig 6A/6B, 4.444 µM): 22.36 and 14.93 | Gyrase supercoiling inhibition response ([3]; compound 13.333 µM, source data Fig 6A/6B, 13.333 µM): 30.98 and 24.28 | Gyrase supercoiling inhibition response ([3]; compound 40 µM, source data Fig 6A/6B, 40 µM): 42.55 and 34.32 | Gyrase supercoiling inhibition response ([3]; compound 120 µM, source data Fig 6A/6B, 120 µM): 58.34 and 49.21 | reduction in inhibition potency compared to wildtype gyrase ([3]; GyrA M120K vs WT): > 500 fold | inhibition at 4.444 µM ([3]; read-out: Gyrase supercoiling inhibition response, GyrA M120K gyrase, compound 4.444 µM, source data Fig 6A/6B): 20.2% | inhibition at 13.333 µM ([3]; read-out: Gyrase supercoiling inhibition response, GyrA M120K gyrase, compound 13.333 µM, source data Fig 6A/6B): 27.2% | inhibition at 40 µM ([3]; read-out: Gyrase supercoiling inhibition response, GyrA M120K gyrase, compound 40 µM, source data Fig 6A/6B): 34.7% | inhibition at 120 µM ([3]; read-out: Gyrase supercoiling inhibition response, GyrA M120K gyrase, compound 120 µM, source data Fig 6A/6B): 56.3% | IC50 [4]: 0.077 µM | Topo IV decatenation inhibition response ([4]; P. aeruginosa topo IV, compound 0.0114 μM, source data Fig 2B, listed as 977, 0.0114 µM): 7.06 | inhibition at 0.0114 µM ([4]; P. aeruginosa topo IV, compound 0.0114 μM, source data Fig 2B, read-out: Topo IV decatenation inhibition response): 10.9% | Topo IV decatenation inhibition response ([4]; P. aeruginosa topo IV, compound 0.0343 μM, source data Fig 2B, listed as 977, 0.0343 µM): 24.14 | inhibition at 0.0343 µM ([4]; P. aeruginosa topo IV, compound 0.0343 μM, source data Fig 2B, read-out: Topo IV decatenation inhibition response): 18.9% | Topo IV decatenation inhibition response ([4]; P. aeruginosa topo IV, compound 0.1029 μM, source data Fig 2B, listed as 977, 0.1029 µM): 63.17 | inhibition at 0.1029 µM ([4]; P. aeruginosa topo IV, compound 0.1029 μM, source data Fig 2B, read-out: Topo IV decatenation inhibition response): 61.6% | Topo IV decatenation inhibition response ([4]; P. aeruginosa topo IV, compound 0.3086 μM, source data Fig 2B, listed as 977, 0.3086 µM): 85.90 | inhibition at 0.3086 µM ([4]; P. aeruginosa topo IV, compound 0.3086 μM, source data Fig 2B, read-out: Topo IV decatenation inhibition response): 88.3% | Topo IV decatenation inhibition response ([4]; P. aeruginosa topo IV, compound 0.9259 μM, source data Fig 2B, listed as 977, 0.9259 µM): 91.28 | inhibition at 0.9259 µM ([4]; P. aeruginosa topo IV, compound 0.9259 μM, source data Fig 2B, read-out: Topo IV decatenation inhibition response): 91.1% | Topo IV decatenation inhibition response ([4]; P. aeruginosa topo IV, compound 2.7778 μM, source data Fig 2B, listed as 977, 2.7778 µM): 91.48 | inhibition at 2.7778 µM ([4]; P. aeruginosa topo IV, compound 2.7778 μM, source data Fig 2B, read-out: Topo IV decatenation inhibition response): 94.5% | Topo IV decatenation inhibition response ([4]; P. aeruginosa topo IV, compound 8.3333 μM, source data Fig 2B, listed as 977, 8.3333 µM): 92.85 | inhibition at 8.3333 µM ([4]; P. aeruginosa topo IV, compound 8.3333 μM, source data Fig 2B, read-out: Topo IV decatenation inhibition response): 97.1% | Topo IV decatenation inhibition response ([4]; P. aeruginosa topo IV, compound 25 μM, source data Fig 2B, listed as 977, 25 µM): 94.54 | inhibition at 25 µM ([4]; P. aeruginosa topo IV, compound 25 μM, source data Fig 2B, read-out: Topo IV decatenation inhibition response): 99.2% | MIC [5]: 0.06 µg/mL (≈ 0.128 µM) | selectivity for bacterial enzymes over human topoisomerases IIα and IIβ [6]: more than 5000 fold | IC50 ([6]; read-out: IC50 Human topo IIα decatenation): 113 ± 13 µM | MIC90 against diverse global isolates [7]: 0.03 µg/mL (≈ 0.064 µM) | difference in MICs between tolC strain and wild-type strain [8]: 10 fold | MIC ([8]; Escherichia coli): 0.001 µg/mL (≈ 0.00213 µM) | MIC90 against diverse global isolates [9]: 0.5 µg/mL (≈ 1.07 µM) | MIC [10]: 0.03 µg/mL (≈ 0.064 µM) | MIC [11]: 0.5 µg/mL (≈ 1.07 µM) | MIC [12]: 0.01 µg/mL (≈ 0.0213 µM)
